Values after ≈ are worked out from the molar mass of the structure shown. Read-outs that look alike come from different tables or passages of the source.
What was measured:
[1] = tested on: ANKA strain of P. berghei; experiment: Single dose STI in vivo screen in infected mice; parameters: species or system Plasmodium berghei; settings: for Survival (days) 3 mg/kg SSV po / Activity (%) 3 mg/kg SSV po: single 3 mg/kg po in SSV; for Activity (%) 3 mg/kg SSV po / Activity (%) 10 mg/kg SSV po: percent reduction in parasitemia on day 3; for Survival (days) 10 mg/kg SSV po: single 10 mg/kg po in SSV, untreated 6-7 days; for Activity (%) 10 mg/kg SSV po: single 10 mg/kg po in standard suspending vehicle (SSV) on day 1 post-infection
P. berghei ANKA strain [2] = experiment: Prophylactic activity, single 100 mg/kg po at various times before infection; type: in vivo, Plasmodium berghei; settings: parasitemia reduction on day 3 post-infection; for Prophylactic Activity (%) 24 h: single 100 mg/kg po 24 h before infection; for Prophylactic Activity (%) 0 h: single 100 mg/kg po at 0 h
Description: (§1) Moro NMRI male mice (Fu Albino specific pathogen free) weighing 18±2 g were infected intravenously (i.v.) with 2×10^7 P. berghei ANKA strain-infected erythrocytes from donor mice on day 0 of the experiment. From donor mice with circa 30% parasitemia, heparinized blood was taken and diluted in physiological saline to 10^8 parasitized erythrocytes per ml. An aliquot (0.2 ml) of this suspension was injected i.v. into experimental and control groups of mice. […] Throughout the experiments, mice were kept in groups of three or five animals in Makrolon type II cages in an air-conditioned animal room at 22 to 23° C.
Prophylactic activities of the compounds were compared after administering po single dose of 100 mg/kg to different groups of five animals at various times before infection. All groups including an untreated control group, were then infected at the same time. Parasitemia was determined for each animal on day 3 post-infection, and percent of reduction of the level of parasitemia compared to levels for animals given no drug is determined.

[3] = tested on: Schistosoma mansoni adult worms (49-day-old); experiment: Effect on adult schistosomes (49-day-old) in infected mice; type: in vivo; settings: po, 400 mg/kg, 1176 h
Description: Mice were infected with 100 Schistosoma mansoni cercariae on day 49 post-treatment. Each group was treated per os with OZ compounds at single doses of 200, 400, and 600 mg/kg. Untreated mice served as the control. All groups were killed 4 weeks after treatment and the liver and intestine were removed and separated. The liver and intestine were compressed and alive male and female worms could be seen and counted.

P. berghei ANKA strain [4] = experiment: Onset of action and recrudescence experiment, single 100 mg/kg po; type: in vivo, Plasmodium berghei; settings: single 100 mg/kg po (SSV) on day +3 post-infection; recrudescence = >5% parasitemia; followed up to 60 days; groups of five
Description: The onset of drug action was determined after a single fixed dose of 100 mg/kg (SSV vehicle) po to groups of five animals on day +3 post-infection (day 0).
as §1

Schistosoma japonicum = experiment: Effect in mice infected with Schistosoma japonicum; type: in vivo; settings: age of worm 35 days, 400 mg/kg x 1
[5] = tested on: chloroquine-sensitive NF54 strain of P. falciparum; experiment: In vitro antimalarial semiautomated microdilution assay ([3H]-hypoxanthine incorporation), NF54 strain; type: cell-based, Plasmodium falciparum; settings: Plasmodium falciparum; chloroquine-sensitive NF54 strain, 72 h incubation; read-out: IC50 (ng/ml) NF54
Method in brief: (§2)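 Semiautomated microdilution against intraerythrocytic P. falciparum from asynchronous stock cultures, with growth tracked by [3H]-hypoxanthine incorporation. IC50 values were estimated by Logit regression analysis.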

[6] = tested on: ANKA strain of Plasmodium berghei; experiment: Single dose ED50/ED90/ED99 determination in infected mice; type: in vivo
Method in brief: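 Moro SPF or NMRI mice (three per group) infected with P. berghei ANKA were dosed once on day 1 post-infection in SSV (0.5% CMC, 0.5% benzyl alcohol, 0.4% Tween 80, 0.9% NaCl). Parasitemia reduction was scored on day 3; ED values (mg/kg) came from nonlinear fitting.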

[7] = tested on: chloroquine-resistant K1 strain of P. falciparum; experiment: In vitro antimalarial semiautomated microdilution assay ([3H]-hypoxanthine incorporation), K1 strain; type: cell-based, Plasmodium falciparum; settings: Plasmodium falciparum; chloroquine-resistant K1 strain, 72 h incubation; read-out: IC50 (ng/ml) K1
Method in brief: as §2

P. berghei ANKA strain [8] = experiment: Divided 3x3 mg/kg and 3x1 mg/kg po doses in infected mice; type: in vivo, Plasmodium berghei
Method in brief: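 Male NMRI mice were infected i.v. with 2×10^7 P. berghei-parasitized erythrocytes on day 0, then dosed orally in SSV vehicle on days 1, 2 and 3 post-infection.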

[9] = tested on: Schistosoma mansoni 21-day-old schistosomules; experiment: Effect on 21-day-old schistosomules in infected mice; type: in vivo; settings: po, 200 mg/kg, 504 h
Description: Mice were infected with 100 Schistosoma mansoni cercariae on day 21 post-treatment. Each group was treated per os with trioxolanes at a single dose of 200 mg/kg. […] All groups were killed 4 weeks after treatment and the liver and intestine were removed and separated. The liver and intestine were compressed and alive male and female worms could be seen and counted. The effect of the compounds was evaluated by mean total and female worm burden.

P. berghei ANKA strain [10] = experiment: Divided 3x10 mg/kg vs single 1x30 mg/kg po dose in infected mice; type: in vivo, Plasmodium berghei
Description: as §1
They were administered per os (p.o.) in a total volume of 0.01 ml per gram of mouse. The activity of the compound was determined by a variety of methods outlined in subsequent sections. Survival time was also recorded, and survival to day 30 post-infection was considered to be a cure.
The first experiment conducted consisted of administration of a divided 3×10 mg/kg p.o. dose administered on days 1, 2, and 3 post-infection vs. a single 1×30 mg/kg po dose administered on day 1 post-infection. On day 4 post-infection, blood smears of all animals were prepared and stained with Giemsa. […] Compounds were administered orally in the SSV vehicle.

[11] = Pharmacokinetics in rats (IV and oral dosing); settings: in vivo, po, 25 mg/kg
From the text: Artesunate is listed as a reference compound.

[12] = single dose po in SSV on day 1 post-infection, parasitemia day 3, nonlinear fitting
[13] = 3 × 1 mg/kg p.o. SSV on days 1, 2, 3 post-infection
[14] = 3 × 3 mg/kg p.o. SSV on days 1, 2, 3 post-infection
[15] = 3 × 3 mg/kg p.o. SSV on days 1, 2, 3 post-infection, percent reduction of parasitemia vs control on day 4

Question: For CO[C@H]1O[C@@H]2O[C@@]3(C)CC[C@H]4[C@H](C)CC[C@@H]([C@H]1C)[C@@]24OO3 [AM, artemether, reference compound], which “Survival (days) 3 mg/kg SSV po” value [1] is on record?
Answer: 8.7 days

Question: And the “Activity (%) 3 mg/kg SSV po” value [1]?
Answer: 79%

Question: And the “Survival (days) 10 mg/kg SSV po” value [1]?
Answer: 9.4 days

Question: And the “Activity (%) 10 mg/kg SSV po” value [1]?
Answer: 99.75%

Question: What about the “Prophylactic Activity (%) 24 h” value (P. berghei ANKA strain [2]) of the same compound?
Answer: 0%

Question: And the “Prophylactic Activity (%) 0 h” value (P. berghei ANKA strain [2])?
Answer: 100%

Question: And the “% reduction of adult worms growth at day 49 after per os application of 400 mg/kg, TWR (%)” value [3]?
Answer: 53%

Question: And the “Adult worms day 49, per os 400 mg/kg, DEAD WORM (%)” value [3]?
Answer: 29%

Question: And the “Time of Recrudescence” value (P. berghei ANKA strain [4])?
Answer: 12.0 days

Question: And the “Mice without female worm” value (Schistosoma japonicum)?
Answer: 0/7

Question: And the “MFWB (mean female worm burden) x ± SD” value (Schistosoma japonicum; control 11.6 ± 2.4)?
Answer: 3.4 ± 1.6

Question: And the “MTWB (mean total worm burden) x ± SD” value (Schistosoma japonicum; control 26.6 ± 4.2)?
Answer: 10.1 ± 4.4

Question: What about the IC50 [5] of the same compound?
Answer: 0.36 ng/mL (≈ 1.21 nM)

Question: And the ED50 ([6]; Plasmodium berghei, single dose po in SSV on day 1 post-infection, parasitemia day 3, nonlinear fitting, read-out: ED50)?
Answer: 2.2 mg/kg

Question: What about the “ED90” value ([6]; po) of the same compound?
Answer: 4.2 mg/kg

Question: And the “ED99” value [6, 12]?
Answer: 7.1 mg/kg

Question: And the IC50 [7]?
Answer: 0.45 ng/mL (≈ 1.51 nM)

Question: And the “Survival” value (P. berghei ANKA strain [8]; [13])?
Answer: 7.2 days

Question: What about the “Survival” value (P. berghei ANKA strain [8]; [14]) of the same compound?
Answer: 9.4 days

Question: What about the “Activity (%)” value (P. berghei ANKA strain [8]; [15]) of the same compound?
Answer: 86%

Question: And the “Activity (%)” value (P. berghei ANKA strain [8]; po, 1 mg/kg, 96 h)?
Answer: 51%

Question: And the Cures (P. berghei ANKA strain [8]; po, 3 mg/kg, 720 h)?
Answer: 0\5

Question: And the “% reduction of schistosomule growth at day 21 after per os application of 200 mg/kg, FWR (%)” value [9]?
Answer: (n2) 78%

Question: And the “% reduction of schistosomule growth at day 21 after per os application of 200 mg/kg, TWR (%)” value [9]?
Answer: (n2) 81%

Question: Which “Cures 3 × 10 mg/kg p.o. SSV” value (P. berghei ANKA strain [10]; 10 mg/kg po on days 1, 2, 3, cure = survival to day 30 post-infection) does the source give for C[C@H]1[C@H](OC(=O)CCC(=O)O)O[C@@H]2O[C@@]3(C)CC[C@H]4[C@H](C)CC[C@@H]1[C@@]24OO3 [AS, artesunate, reference compound] here?
Answer: 0/5

Question: And the “Survival (days) 3 × 10 mg/kg p.o. SSV” value (P. berghei ANKA strain [10]; 10 mg/kg po on days 1, 2, 3 post-infection)?
Answer: 11 days

Question: What about the “Activity (%) 3 × 10 mg/kg p.o. SSV” value (P. berghei ANKA strain [10]; 10 mg/kg po on days 1, 2, 3 post-infection, parasitemia reduction on day 4) of the same compound?
Answer: 98.62%

Question: And the “Survival (days) 1 × 30 mg/kg p.o. SSV” value (P. berghei ANKA strain [10]; single 30 mg/kg po on day 1 post-infection)?
Answer: 9 days

Question: What about the “Activity (%) 1 × 30 mg/kg p.o. SSV” value (P. berghei ANKA strain [10]; single 30 mg/kg po on day 1 post-infection, parasitemia reduction on day 4) of the same compound?
Answer: 83.83%

Question: And the “Cures 1 × 30 mg/kg p.o. SSV” value (P. berghei ANKA strain [10]; single 30 mg/kg po, cure = survival to day 30 post-infection)?
Answer: 0/5

Question: And the “Survival (days) 3 mg/kg SSV po” value [1]?
Answer: 8.0 days

Question: What about the “Activity (%) 3 mg/kg SSV po” value [1] of the same compound?
Answer: 66%

Question: What about the “Survival (days) 10 mg/kg SSV po” value [1] of the same compound?
Answer: 7.0 days

Question: And the “Activity (%) 10 mg/kg SSV po” value [1]?
Answer: 87%

Question: What about the “Prophylactic Activity (%) 24 h” value (P. berghei ANKA strain [2]) of the same compound?
Answer: 6.28%

Question: And the “Prophylactic Activity (%) 0 h” value (P. berghei ANKA strain [2])?
Answer: 92.44%

Question: What about the “Time of Recrudescence” value (P. berghei ANKA strain [4]) of the same compound?
Answer: 8.6 days

Question: What about the “ED50” value [6, 12] of the same compound?
Answer: 4.7 mg/kg

Question: What about the “ED90” value [6, 12] of the same compound?
Answer: 19 mg/kg

Question: And the “ED99” value [6, 12]?
Answer: 60 mg/kg

Question: What about the “Survival” value (P. berghei ANKA strain [8]; [13]) of the same compound?
Answer: 6.8 days

Question: What about the “Activity (%)” value (P. berghei ANKA strain [8]; 3 × 1 mg/kg p.o. SSV on days 1, 2, 3 post-infection, percent reduction of parasitemia vs control on day 4) of the same compound?
Answer: 39%

Question: What about the “Survival” value (P. berghei ANKA strain [8]; [14]) of the same compound?
Answer: 9.4 days

Question: What about the “Activity (%)” value (P. berghei ANKA strain [8]; [15]) of the same compound?
Answer: 78%

Question: And the “Rat Oral Bioavailability 25 mg/kg (DHA)” value [11]?
Answer: 21%
